Test results from patent US20250101436A1, “APTAMERS AND SMALL MOLECULE LIGANDS” (MeiraGTx UK II Limited, priority 2021, published 2025).

Tested on: luciferase gene expression in HEK 293 cells in response to Comp. 004
Assay: Screen of riboswitch constructs with 12C6-1 variant aptamers (libraries N1-N5) against Comp. 004, luciferase in HEK 293 cells
Format: cell-based, human
Method in brief: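 Riboswitch constructs carrying 12C6-1 aptamer variants, randomized in J2-4, J2-3/J3-3a/J3a-2/P3, L3a, J4-5/J5-4/P4 or L5 regions (libraries N1-N5), cloned into an intron-exon-intron cassette driving luciferase. Screened in HEK 293 cells with 25 µM Comp. 004; read-out is fold induction of gene expression versus parent Luci-12C6-1.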

[1] = library N5 variant aptamers (L5, X16-X21 randomized) of 12C6-1 in riboswitch constructs, in response to Comp. 004 treatment, HEK 293 cells
[2] = library N2 variant aptamers (J2-3, P3-J3-3a, J3a-2 randomized) of 12C6-1 in riboswitch constructs, in response to Comp. 004, HEK 293 cells
[3] = library N1 (J2-4), HEK 293, 25 M [sic] Comp. 004

Substance | Fold (induction of luciferase gene expression) [1] | further results
N5_1G4 (CTGGGGAGTCCT; chemistry not given here) | 86.0 fold | –
N2_2C5 (CTGGGGAGTCCTTCATGC; chemistry not given here) | – | Fold (induction of luciferase gene expression) [2]: 1.0 fold
N2_2C8 (CTGGGGAGTCCTTCATGC; chemistry not given here) | – | Fold (induction of luciferase gene expression) [2]: 0.9 fold
N5_7F8 (DNA CTGGGGAGTCCT; chemistry not given here) | 1279.7 fold | –
N5_1D4 (CTGGGGAGTCCT; chemistry not given here) | 522.9 fold | –
N2_2E7 (DNA CTGGGGAGTCCTTCATGC; chemistry not given here) | – | Fold (induction of luciferase gene expression) [2]: 1.1 fold
N1_2D2 (CTGGGGAGTCCTTCATGCGGGGC; chemistry not given here) | – | Fold (induction of luciferase gene expression) [3]: 102.23 fold
N5_11D10 (CTGGGGAGTCCT; chemistry not given here) | 1719.3 fold | –
N5_6A8 (CTGGGGAGTCCT; chemistry not given here) | 1252.2 fold | –
N1_2G3 (CTGGGGAGTCCTTCATGCGGGGC; chemistry not given here) | – | Fold (induction of luciferase gene expression) [3]: 36.58 fold
N5_1E1 (CTGGGGAGTCCT; chemistry not given here) | 566.4 fold | –
N5_1C9 (CTGGGGAGTCCT; chemistry not given here) | 915.3 fold | –
N5_8H1 (DNA CTGGGGAGTCCT; chemistry not given here) | 1191.9 fold | –
N2_2B10 (CTGGGGAGTCCTTCATGC; chemistry not given here) | – | Fold (induction of luciferase gene expression) [2]: 1.1 fold
N5_13C10 (CTGGGGAGTCCT; chemistry not given here) | 1144.6 fold | –
N5_12F12 (CTGGGGAGTCCT; chemistry not given here) | 1169.8 fold | –
N5_7G10 (DNA CTGGGGAGTCCT; chemistry not given here) | 530.8 fold | –
N5_1G2 (CTGGGGAGTCCT; chemistry not given here) | 517.7 fold | –
N5_7A5 (CTGGGGAGTCCT; chemistry not given here) | 785.5 fold | –
N2_2F3 (DNA CTGGGGAGTCCTTCATGC; chemistry not given here) | – | Fold (induction of luciferase gene expression) [2]: 0.9 fold

Substance | Fold (induction of luciferase gene expression) [1] | further results
N1_2E11 (CTGGGGAGTCCTTCATGCGGGGC; chemistry not given here) | – | Fold (induction of luciferase gene expression) [3]: 15.45 fold
N5_8A9 (DNA CTGGGGAGTCCT; chemistry not given here) | 1090.4 fold | –
N5_5E4 (CTGGGGAGTCCT; chemistry not given here) | 1116.0 fold | –
N5_1E12 (CTGGGGAGTCCT; chemistry not given here) | 1588.2 fold | –
N2_2B11 (CTGGGGAGTCCTTCATGC; chemistry not given here) | – | Fold (induction of luciferase gene expression) [2]: 1.2 fold
N2_2C3 (CTGGGGAGTCCTTCATGC; chemistry not given here) | – | Fold (induction of luciferase gene expression) [2]: 1.1 fold
N5_1E10 (CTGGGGAGTCCT; chemistry not given here) | 1026.1 fold | –
N2_2E4 (DNA CTGGGGAGTCCTTCATGC; chemistry not given here) | – | Fold (induction of luciferase gene expression) [2]: 0.7 fold
N5_7D2 (DNA CTGGGGAGTCCT; chemistry not given here) | 1114.3 fold | –
N5_7A6 (CTGGGGAGTCCT; chemistry not given here) | 314.5 fold | –
N5_6B6 (CTGGGGAGTCCT; chemistry not given here) | 659.7 fold | –
N2_2H1 (CTGGGGAGTCCTTCATGC; chemistry not given here) | – | Fold (induction of luciferase gene expression) [2]: 1.1 fold
N2_2B4 (CTGGGGAGTCCTTCATGC; chemistry not given here) | – | Fold (induction of luciferase gene expression) [2]: 0.8 fold
N5_9G7 (DNA CTGGGGAGTCCT; chemistry not given here) | 937.7 fold | –
N5_7C11 (CTGGGGAGTCCT; chemistry not given here) | 459.9 fold | –
N5_7H11 (DNA CTGGGGAGTCCT; chemistry not given here) | 1105.2 fold | –
N2_2G4 (DNA CTGGGGAGTCCTTCATGC; chemistry not given here) | – | Fold (induction of luciferase gene expression) [2]: 1.1 fold
N2_2A11 (CTGGGGAGTCCTTCATGC; chemistry not given here) | – | Fold (induction of luciferase gene expression) [2]: 1.1 fold
N5_1E8 (CTGGGGAGTCCT; chemistry not given here) | 691.8 fold | –
N5_2D9 (CTGGGGAGTCCT; chemistry not given here) | 735.9 fold | –

Substance | Fold (induction of luciferase gene expression) [1] | further results
N1_2D9 (CTGGGGAGTCCTTCATGCGGGGC; chemistry not given here) | – | Fold (induction of luciferase gene expression) [3]: 9.74 fold
N5_8C7 (DNA CTGGGGAGTCCT; chemistry not given here) | 817.6 fold | –
N5_7B12 (CTGGGGAGTCCT; chemistry not given here) | 908.4 fold | –
N5_1B6 (CTGGGGAGTCCT; chemistry not given here) | 1381.8 fold | –
N1_2H11 (CTGGGGAGTCCTTCATGCGGGGC; chemistry not given here) | – | Fold (induction of luciferase gene expression) [3]: 2.83 fold
N5_1A2 (CTGGGGAGTCCT; chemistry not given here) | 672.2 fold | –
N5_6D12 (CTGGGGAGTCCT; chemistry not given here) | 2318.1 fold | –
N2_2G7 (DNA CTGGGGAGTCCTTCATGC; chemistry not given here) | – | Fold (induction of luciferase gene expression) [2]: 1.0 fold
N5_1G8 (CTGGGGAGTCCT; chemistry not given here) | 888.7 fold | –
N5_7F4 (DNA CTGGGGAGTCCT; chemistry not given here) | 1239.0 fold | –
N2_2H11 (CTGGGGAGTCCTTCATGC; chemistry not given here) | – | Fold (induction of luciferase gene expression) [2]: 1.2 fold
N5_6A6 (CTGGGGAGTCCT; chemistry not given here) | 1024.4 fold | –
N5_6H10 (CTGGGGAGTCCT; chemistry not given here) | 1466.1 fold | –
N5_8H7 (DNA CTGGGGAGTCCT; chemistry not given here) | 1218.5 fold | –
N5_4D8 (CTGGGGAGTCCT; chemistry not given here) | 565.6 fold | –
N2_2D12 (DNA CTGGGGAGTCCTTCATGC; chemistry not given here) | – | Fold (induction of luciferase gene expression) [2]: 1.1 fold
N2_2A6 (CTGGGGAGTCCTTCATGC; chemistry not given here) | – | Fold (induction of luciferase gene expression) [2]: 1.2 fold
N5_12G2 (CTGGGGAGTCCT; chemistry not given here) | 1074.1 fold | –
